Experimental data as given in PubChem BioAssay AID312 (DTP/NCI, 2004).
Where “and” joins values, the source holds several entries; their conditions need not be identical. Equal entries are not always repeated. Inconclusive results and toxic doses are left out.

System: BDF1 mice, C1498 leukemia ip, median survival T/C
Assay: NCI In Vivo Anticancer Drug Screen. Data for tumor model C1498 Myeloid Leukemia (intraperitoneal) in B6D2F1 (BDF1) mice
Conditions: endpoint: median survival time, higher = longer survival
Experimental: The antitumor activity of compounds was measured in mice bearing transplantable tumors. Survival or tumor size were measured and the results are expressed as the measurement made in the treated group (T) divided by the measurement made in the vehicle treated control group (C). The tumor model used in this assay is C1498 Myeloid Leukemia (intraperitoneal) in B6D2F1 (BDF1) mice

[1] = dose: 20.0 mg/kg/injection, schedule: Q01DX010 (ip), vehicle: saline
[2] = dose: 5.0 mg/kg/injection, schedule: Q01DX010 (ip), vehicle: saline
[3] = dose: 10.0 mg/kg/injection, schedule: Q01DX010 (ip), vehicle: saline
[4] = dose: 2.5 mg/kg/injection, schedule: Q01DX010 (ip), vehicle: saline
[5] = dose: 25.0 mg/kg/injection, schedule: Q01DX010 (ip), vehicle: saline
[6] = dose: 50.0 mg/kg/injection, schedule: Q01DX010 (ip), vehicle: saline
[7] = dose: 200.0 mg/kg/injection, schedule: Q01DX010 (ip), vehicle: saline

## O=c1[nH]cc(F)c(=O)[nH]1
[1]
  T/C: 159 % of control
dose: 25.0 mg/kg/injection, schedule: Q01DX009 (ip), vehicle: saline
  T/C: 165 % of control
dose: 30.0 mg/kg/injection, schedule: Q01DX009 (ip), vehicle: saline
  T/C: 165 % of control

## C[C@@H]1C[C@@H]([C@H](O)CC2CC(=O)NC(=O)C2)C(=O)[C@@H](C)C1
[2]
  T/C: 104 % of control and 109 % of control
[3]
  T/C: 114 % of control and 122 % of control
[1]
  T/C: 113 % of control and 123 % of control
dose: 40.0 mg/kg/injection, schedule: Q01DX010 (ip), vehicle: saline
  T/C: 113 % of control

## Nc1nc(=S)c2ncn(C3OC(CO)C(O)C3O)c2[nH]1 (centres undefined)
dose: 0.5 mg/kg/injection, schedule: Q01DX010 (ip), vehicle: saline
  T/C: 113 % of control
dose: 2.0 mg/kg/injection, schedule: Q01DX010 (ip), vehicle: saline
  T/C: 100 % of control and 111 % of control
dose: 4.0 mg/kg/injection, schedule: Q01DX010 (ip), vehicle: saline
  T/C: 100 % of control and 90 % of control
dose: 8.0 mg/kg/injection, schedule: Q01DX010 (ip), vehicle: saline
  T/C: 107 % of control

## Nc1nc(N)c2nc(CNc3ccc(C(=O)NC(CCC(=O)O)C(=O)O)cc3)cnc2n1 (centres undefined)
dose: 0.05 mg/kg/injection, schedule: Q01DX010 (ip), vehicle: other
  T/C: 100 % of control and 103 % of control
dose: 0.1 mg/kg/injection, schedule: Q01DX010 (ip), vehicle: other
  T/C: 92 % of control and 100 % of control
dose: 0.2 mg/kg/injection, schedule: Q01DX010 (ip), vehicle: other
  T/C: 100 % of control
dose: 0.4 mg/kg/injection, schedule: Q01DX010 (ip), vehicle: other
  T/C: 92 % of control

## S=P(N1CCOCC1)(N1CC1)N1CC1
[4]
  T/C: 95 % of control and 104 % of control
[2]
  T/C: 95 % of control and 100 % of control
[3]
  T/C: 100 % of control and 104 % of control
[1]
  T/C: 104 % of control

## CC[n+]1c(-c2ccccc2)c2cc(N)ccc2c2ccc(N)cc21
dose: 1.25 mg/kg/injection, schedule: Q01DX010 (ip), vehicle: saline
  T/C: 110 % of control
[4]
  T/C: 105 % of control and 109 % of control
[2]
  T/C: 100 % of control and 110 % of control
[3]
  T/C: 100 % of control and 110 % of control
[1]
  T/C: 100 % of control

## CC(=O)Nc1ccc2nc3ccc(NC(C)=O)cc3[n+](-c3ccccc3)c2c1
[5]
  T/C: 107 % of control
[6]
  T/C: 96 % of control
dose: 100.0 mg/kg/injection, schedule: Q01DX010 (ip), vehicle: saline
  T/C: 88 % of control
[7]
  T/C: 88 % of control

## O=NN(CCCl)C(=O)NCCCl
dose: 30.0 mg/kg/injection, schedule: Q01DX001 (ip), vehicle: saline + alcohol
  T/C: 420 % of control
dose: 35.0 mg/kg/injection, schedule: Q01DX001 (ip), vehicle: saline + alcohol
  T/C: 247 % of control

## O=c1cnn(C2OC(CO)C(O)C2O)c(=O)[nH]1 (centres undefined)
[7]
  T/C: 104 % of control
dose: 400.0 mg/kg/injection, schedule: Q01DX010 (ip), vehicle: saline
  T/C: 100 % of control
dose: 800.0 mg/kg/injection, schedule: Q01DX010 (ip), vehicle: saline
  T/C: 100 % of control

## CS(=O)(=O)OCCCCOS(C)(=O)=O
dose: 6.25 mg/kg/injection, schedule: Q01DX010 (ip), vehicle: saline
  T/C: 95 % of control
dose: 12.5 mg/kg/injection, schedule: Q01DX010 (ip), vehicle: saline
  T/C: 95 % of control and 90 % of control
[5]
  T/C: 113 % of control
[6]
  T/C: 109 % of control and 119 % of control

## CN(Cc1cnc2nc(N)nc(N)c2n1)c1ccc(C(=O)N[C@@H](CCC(=O)O)C(=O)O)cc1
dose: 1.5 mg/kg/injection, schedule: Q01DX009 (ip), vehicle: sodium bicarbonate
  T/C: 110 % of control
dose: 2.0 mg/kg/injection, schedule: Q01DX009 (ip), vehicle: sodium bicarbonate
  T/C: 124 % of control

## Nc1nc2n[nH]nc2c(=O)[nH]1
dose: 25.0 mg/kg/injection, schedule: Q01DX010 (ip), vehicle: alkali diluted with saline
  T/C: 92 % of control and 96 % of control
dose: 50.0 mg/kg/injection, schedule: Q01DX010 (ip), vehicle: alkali diluted with saline
  T/C: 92 % of control and 96 % of control
dose: 100.0 mg/kg/injection, schedule: Q01DX010 (ip), vehicle: alkali diluted with saline
  T/C: 100 % of control and 89 % of control
dose: 200.0 mg/kg/injection, schedule: Q01DX010 (ip), vehicle: alkali diluted with saline
  T/C: 96 % of control

## O=c1c(O)cccc2cc(O)c(O)c(O)c12
[5]
  T/C: 90 % of control
[6]
  T/C: 100 % of control

## Clc1ncnc2nc[nH]c12
dose: 7.5 mg/kg/injection, schedule: Q01DX010 (ip), vehicle: saline
  T/C: 95 % of control and 100 % of control
dose: 15.0 mg/kg/injection, schedule: Q01DX010 (ip), vehicle: saline
  T/C: 95 % of control and 90 % of control
dose: 30.0 mg/kg/injection, schedule: Q01DX010 (ip), vehicle: saline
  T/C: 104 % of control and 90 % of control
dose: 60.0 mg/kg/injection, schedule: Q01DX010 (ip), vehicle: saline
  T/C: 95 % of control
